From patent US20240109930A1, “TRIAZOLYL-METHYL SUBSTITUTED ALPHA-D-GALACTOPYRANOSIDE DERIVATIVES” (Idorsia Pharmaceuticals Ltd, priority 2021, published 2024)

Key:
human Gal-3 (hGal-3) = human Gal-3 (hGal-3) (Homo sapiens (Human), UniProt P17931); assay: Competitive binding assay: biotinylated hGal-3 binding to microplate-adsorbed asialofetuin (ASF); details: IC50 values from several measurements given as geomean
Outline: (§1)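 Biotinylated hGal-3 or hGal-1 (preferably cysteine-free Cys→Ser mutant), 300–1000 ng/mL, competes with compound for ASF-coated wells for 3 h at 4 °C. Bound lectin detected with streptavidin-peroxidase (80 ng/mL, 1 h, 4 °C) and ABTS by absorbance; IC50 reported as geomean of several runs.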

human Gal-1 (hGal-1) = human Gal-1 (hGal-1) (Homo sapiens, UniProt P09382, C131S/C17S/C43S/C61S/C89S); assay: Competitive binding assay: biotinylated hGal-1 binding to microplate-adsorbed asialofetuin (ASF); details: IC50 values from several measurements given as geomean
Outline: as §1

Sequence of human Gal-3 (hGal-3) (P17931 whole entry): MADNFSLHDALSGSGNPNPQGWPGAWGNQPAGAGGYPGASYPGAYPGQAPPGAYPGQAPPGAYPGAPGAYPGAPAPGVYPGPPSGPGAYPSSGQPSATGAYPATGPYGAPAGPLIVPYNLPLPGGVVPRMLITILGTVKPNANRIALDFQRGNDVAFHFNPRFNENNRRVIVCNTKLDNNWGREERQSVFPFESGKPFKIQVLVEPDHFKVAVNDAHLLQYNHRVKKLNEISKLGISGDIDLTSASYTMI

Structure (SMILES)	IC50 (human Gal-3 (hGal-3)) [nM]	IC50 (human Gal-1 (hGal-1)) [nM]
CO[C@@H]1[C@@H](n2cc(-c3ccc(Cl)c(F)c3F)nn2)[C@@H](O)[C@@H](CO)O[C@@H]1Cc1cn(C2CC23CC3(F)F)nn1 (stereo partly drawn) [Ex 2.1.75., (2R,3R,4S,5R,6R)-4-(4-(4-chloro-2,3-difluorophenyl)-1H-1,2,3-triazol-1-yl)-6-((1-(4,4-difluorospiro[2.2]pentan-1-yl)-1H-1,2,3-triazol-4-yl)methyl)-2-(hydroxymethyl)-5-methoxytetrahydro-2H-pyran-3-ol]	50	2780
CO[C@@H]1[C@@H](n2cc(-c3ccc(Cl)c(F)c3F)nn2)[C@@H](O)[C@@H](CO)O[C@@H]1Cc1cn(C2(C(F)F)CCC2)nn1 [Ex 2.1.43.]	20	610
CO[C@@H]1[C@@H](n2cc(-c3ccc(C)c(F)c3F)nn2)[C@@H](O)[C@@H](CO)O[C@@H]1Cc1cn(C23CC(C2)C3)nn1 [Ex 1.1.12.]	50	4150
CO[C@@H]1[C@@H](n2cc(-c3ccc(Br)c(F)c3F)nn2)[C@@H](O)[C@@H](CO)O[C@@H]1Cn1cc(C2(C)COC2)nn1 [Ex 4.2.6.]	70	2530
CO[C@@H]1[C@@H](n2cc(-c3ccc(Cl)c(F)c3F)nn2)[C@@H](O)[C@@H](CO)O[C@@H]1Cc1cn([C@H]2CCC[C@H]2F)nn1 [Example 2.1.79.B, (2R,3R,4S,5R,6R)-4-(4-(4-chloro-2,3-difluorophenyl)-1H-1,2,3-triazol-1-yl)-6-((1-((1S,2R)-2-fluorocyclopentyl)-1H-1,2,3-triazol-4-yl)methyl)-2-(hydroxymethyl)-5-methoxytetrahydro-2H-pyran-3-ol]	30	3160
CO[C@@H]1[C@@H](n2cc(-c3ccc(Cl)c(F)c3F)nn2)[C@@H](O)[C@@H](CO)O[C@@H]1Cc1cn([C@H]2CCCC[C@@H]2F)nn1 [Example 2.1.81.D, (2R,3R,4S,5R,6R)-4-(4-(4-chloro-2,3-difluorophenyl)-1H-1,2,3-triazol-1-yl)-6-((1-((1S,2S)-2-fluorocyclohexyl)-1H-1,2,3-triazol-4-yl)methyl)-2-(hydroxymethyl)-5-methoxytetrahydro-2H-pyran-3-ol]	60	2180
CO[C@@H]1[C@@H](n2cc(-c3ccc(F)c(F)c3F)nn2)[C@@H](O)[C@@H](CO)O[C@@H]1Cc1cn(C2(CO)CCC2)nn1 [Ex 3.1.11.]	40	890
CO[C@@H]1[C@@H](n2cc(-c3ccc(C#N)c(F)c3F)nn2)[C@@H](O)[C@@H](CO)O[C@@H]1Cc1cn(C2(C(F)F)COC2)nn1 [Ex 5.1.53., 4-(1-((2R,3R,4S,5R,6R)-2-((1-(3-(Difluoromethyl)oxetan-3-yl)-1H-1,2,3-triazol-4-yl)methyl)-5-hydroxy-6-(hydroxymethyl)-3-methoxytetrahydro-2H-pyran-4-yl)-1H-1,2,3-triazol-4-yl)-2,3-difluorobenzonitrile]	60	1350
CO[C@@H]1[C@@H](n2cc(-c3ccc(Cl)c(F)c3F)nn2)[C@@H](O)[C@@H](CO)O[C@@H]1Cc1cn(C23CC(F)(C2)C3)nn1 [Ex 2.1.25.]	50	1960
CO[C@@H]1[C@@H](n2cc(-c3ccc(Cl)c(F)c3F)nn2)[C@@H](O)[C@@H](CO)O[C@@H]1Cc1cn([C@H]2CCOC[C@H]2F)nn1 [Example 2.1.66.B, (2R,3R,4S,5R,6R)-4-(4-(4-chloro-2,3-difluorophenyl)-1H-1,2,3-triazol-1-yl)-6-((1-((3S,4S)-3-fluorotetrahydro-2H-pyran-4-yl)-1H-1,2,3-triazol-4-yl)methyl)-2-(hydroxymethyl)-5-methoxytetrahydro-2H-pyran-3-ol]	40	2900
CO[C@@H]1[C@@H](n2cc(-c3ccc(F)c(F)c3F)nn2)[C@@H](O)[C@@H](CO)O[C@@H]1Cc1cn(C2(C)CC(F)(F)C2)nn1 [Ex 3.1.15.]	50	460
CO[C@@H]1[C@@H](n2cc(-c3ccc(Cl)c(F)c3F)nn2)[C@@H](O)[C@@H](CO)O[C@@H]1Cc1cn([C@]2(C)C[C@@H](O)C2)nn1 [Ex 2.1.27.]	30	700
CO[C@@H]1[C@@H](n2cc(-c3ccc(Cl)c(F)c3F)nn2)[C@@H](O)[C@@H](CO)O[C@@H]1Cc1cn(C2CC(C(F)(F)F)(C(F)(F)F)C2)nn1 [Ex 2.1.57.]	500	28100
CO[C@@H]1[C@@H](n2cc(-c3ccc(F)c(F)c3F)nn2)[C@@H](O)[C@@H](CO)O[C@@H]1Cc1cn(C2(C)COC2)nn1 [Ex 3.1.6., (2R,3R,4S,5R,6R)-2-(hydroxymethyl)-5-methoxy-6-((1-(3-methyloxetan-3-yl)-1H-1,2,3-triazol-4-yl)methyl)-4-(4-(2,3,4-trifluorophenyl)-1H-1,2,3-triazol-1-yl)tetrahydro-2H-pyran-3-ol]	50	190
CO[C@@H]1[C@@H](n2cc(-c3ccc(Cl)c(F)c3F)nn2)[C@@H](O)[C@@H](CO)O[C@@H]1Cc1cn(C2(C(F)F)COC2)nn1 [Ex 2.1.53., (2R,3R,4S,5R,6R)-4-(4-(4-chloro-2,3-difluorophenyl)-1H-1,2,3-triazol-1-yl)-6-((1-(3-(difluoromethyl)oxetan-3-yl)-1H-1,2,3-triazol-4-yl)methyl)-2-(hydroxymethyl)-5-methoxytetrahydro-2H-pyran-3-ol [1-(1,2,3-tri-deoxy-2-methoxy-3-[4-(4-chloro-2,3-difluorophenyl)-1H-1,2,3-triazol-1-yl]-α-D-galacto-pyranose)-1-(1-(3-difluoromethyl-3-oxetanyl)-1H-triazol-4-yl)-methane]]	20	420
CO[C@@H]1[C@@H](n2cc(-c3ccc(Cl)c(F)c3F)nn2)[C@@H](O)[C@@H](CO)O[C@@H]1Cc1cn(C2CCC2(F)F)nn1 (single isomer, unassigned) [Example 2.1.63.A]	60	2170

The remaining compounds from weak to strong by IC50 (human Gal-3 (hGal-3)), led by results:

IC50 (human Gal-3 (hGal-3)) [nM]	IC50 (human Gal-1 (hGal-1)) [nM]	Structure (SMILES)
110	5000	CO[C@@H]1[C@@H](n2cc(-c3ccc(C)c(F)c3F)nn2)[C@@H](O)[C@@H](CO)O[C@@H]1Cc1cn(C2CC2C(C)C)nn1 (stereo partly shown) [Ex 1.1.17.]
70	1140	CO[C@@H]1[C@@H](n2cc(-c3ccc(Br)c(F)c3F)nn2)[C@@H](O)[C@@H](CO)O[C@@H]1Cc1cn(C2(CCO)COC2)nn1 [Ex 4.1.22.]
70	6070	CO[C@@H]1[C@@H](n2cc(-c3ccc(Cl)c(F)c3F)nn2)[C@@H](O)[C@@H](CO)O[C@@H]1Cc1cn(C23CCC(N)(CC2)CC3)nn1 [Ex 2.2.39.]
70	1600	CCC(C)(CC)n1cc(C[C@H]2O[C@H](CO)[C@H](O)[C@H](n3cc(-c4ccc(Cl)c(F)c4F)nn3)[C@H]2OC)nn1 [Ex 2.1.50.]
60	860	CO[C@@H]1[C@@H](n2cc(-c3ccc(F)c(F)c3F)nn2)[C@@H](O)[C@@H](CO)O[C@@H]1Cn1cc(C2(O)CCOCC2)nn1 [Ex 3.2.35.]
50	390	CO[C@@H]1[C@@H](n2cc(-c3ccc(F)c(F)c3F)nn2)[C@@H](O)[C@@H](CO)O[C@@H]1Cc1cn(C2(C)CC2)nn1 [Ex 3.1.23.]
40	2610	CO[C@@H]1[C@@H](n2cc(-c3ccc(C)c(F)c3F)nn2)[C@@H](O)[C@@H](CO)O[C@@H]1Cc1cn(C23CC(C)(C2)C3)nn1 [Ex 1.1.14.]
30	1290	CO[C@@H]1[C@@H](n2cc(-c3ccc(Br)c(F)c3F)nn2)[C@@H](O)[C@@H](CO)O[C@@H]1Cc1cn(C2(C(F)F)CC2)nn1 [Ex 4.1.51.]
30	1410	CO[C@@H]1[C@@H](n2cc(-c3ccc(C)c(F)c3F)nn2)[C@@H](O)[C@@H](CO)O[C@@H]1Cc1cn([C@]2(C)C[C@@H](O)C2)nn1 [Ex 1.1.27.]
30	800	CO[C@@H]1[C@@H](n2cc(-c3ccc(C)c(F)c3F)nn2)[C@@H](O)[C@@H](CO)O[C@@H]1Cc1cn(C2(C(F)(F)F)COC2)nn1 [Ex 1.1.58.]
30	290	CO[C@@H]1[C@@H](n2cc(-c3ccc(F)c(F)c3F)nn2)[C@@H](O)[C@@H](CO)O[C@@H]1Cc1cn(C(C)(C)C(F)F)nn1 [Ex 3.1.28., (2R,3R,4S,5R,6R)-6-((1-(1,1-difluoro-2-methylpropan-2-yl)-1H-1,2,3-triazol-4-yl)methyl)-2-(hydroxymethyl)-5-methoxy-4-(4-(2,3,4-trifluorophenyl)-1H-1,2,3-triazol-1-yl)tetrahydro-2H-pyran-3-ol]
30	1940	CO[C@@H]1[C@@H](n2cc(-c3ccc(Br)c(F)c3F)nn2)[C@@H](O)[C@@H](CO)O[C@@H]1Cc1cn(C2(CF)CC2)nn1 [Ex 4.1.46., (2R,3R,4S,5R,6R)-4-(4-(4-bromo-2,3-difluorophenyl)-1H-1,2,3-triazol-1-yl)-6-((1-(1-(fluoromethyl)cyclopropyl)-1H-1,2,3-triazol-4-yl)methyl)-2-(hydroxymethyl)-5-methoxytetrahydro-2H-pyran-3-ol]
20	310	CO[C@@H]1[C@@H](n2cc(-c3ccc(F)c(F)c3F)nn2)[C@@H](O)[C@@H](CO)O[C@@H]1Cc1cn([C@@H]2CCOC[C@H]2F)nn1 (single isomer, unassigned) [Example 3.1.66.D, (2R,3R,4S,5R,6R)-6-((1-((3S*,4R*)-3-fluorotetrahydro-2H-pyran-4-yl)-1H-1,2,3-triazol-4-yl)methyl)-2-(hydroxymethyl)-5-methoxy-4-(4-(2,3,4-trifluorophenyl)-1H-1,2,3-triazol-1-yl)tetrahydro-2H-pyran-3-ol]
